Laboratory results taken from patent US9695155B2, “Herbicidal substituted pyrimidinyloxy benzene compounds” (E. I. DU PONT DE NEMOURS AND COMPANY, priority 2013, dated 2017).

Experiments:
waterhemp = test: Test C preemergence; format: in vivo, Amaranthus rudis; details: for Waterhemp plant response rating: preemergence; for Plant response rating, Waterhemp: Preemergence, 31 g ai/ha, scale 0 to 100, 0 no effect, 100 complete control
In short: (§1)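 Sown in loam/sand → sprayed pre-emergence; or grown to 1–4 leaves in peat mix → sprayed post-emergence. Same solvent/surfactant formulation both ways. Greenhouse 13–15 d. Score 0–100 visual.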

barnyardgrass [1] = test: Test A postemergence; format: in vivo, Echinochloa crus-galli
In short: (§2)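 Greenhouse pot test, loam/sand soil. Formulation: non-phytotoxic solvent mix plus surfactant. Pre: directed spray onto soil after sowing. Post: plants at 1–2 leaf, 2–10 cm. Rated visually vs untreated controls at ~10 d, 0 (no effect) to 100 (complete control).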

barnyardgrass [2] = test: Test C preemergence; format: in vivo, Echinochloa crus-galli; details: for Barnyardgrass plant response rating: preemergence; for Plant response rating, Barnyardgrass: Preemergence, 31 g ai/ha, scale 0 to 100, 0 no effect, 100 complete control
In short: as §1

morningglory = test: Test C preemergence; format: in vivo, Ipomoea coccinea; details: for Morningglory plant response rating: preemergence; for Plant response rating, Morningglory: Preemergence, 31 g ai/ha, scale 0 to 100, 0 no effect, 100 complete control
In short: as §1

oilseed rape = test: Test C preemergence; format: in vivo, Brassica napus; details: for Oilseed Rape plant response rating: preemergence; for Plant response rating, Oilseed Rape: Preemergence, 31 g ai/ha, scale 0 to 100, 0 no effect, 100 complete control
In short: as §1

barnyardgrass [3] = test: Test B flooded paddy test; format: in vivo, Echinochloa crus-galli; details: Flood, 250 g ai/ha; 0 to 100 scale where 0 is no effect and 100 is complete control
In short: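 Greenhouse flooded-pot test: compounds dosed into 3 cm standing water over 2-leaf plants, flood held constant. Rated visually after 13–15 days on 0–100 (complete control = 100); a dash marks no test result.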

soybean [4] = test: Test C preemergence; format: in vivo, Glycine max; details: for Soybean plant response rating: preemergence; for Plant response rating, Soybean: Preemergence, 31 g ai/ha, scale 0 to 100, 0 no effect, 100 complete control
In short: as §1

pigweed = test: Test A postemergence; format: in vivo, Amaranthus retroflexus; details: 0 to 100 scale where 0 is no effect and 100 is complete control
In short: as §2

galium [5] = test: Test C preemergence; format: in vivo, Galium aparine; details: for Galium plant response rating: preemergence; for Plant response rating, Galium: Preemergence, 31 g ai/ha, scale 0 to 100, 0 no effect, 100 complete control
In short: as §1

velvetleaf = test: Test C postemergence; format: in vivo, Abutilon theophrasti; details: for Plant response rating (0 to 100), Velvetleaf: 125 g ai/ha, postemergence; for Plant response rating, Velvetleaf: Postemergence, scale 0 to 100 (0 no effect, 100 complete control)
In short: as §1

giant foxtail = test: Test A preemergence; format: in vivo, Setaria faberii; details: for Plant response rating, Foxtail, Giant: 125 g ai/ha, 0 to 100 scale where 0 is no effect and 100 is complete control; for Foxtail, Giant plant response rating: 500 g ai/ha, 0 to 100 scale, 0 no effect, 100 complete control, approx. 10 days
In short: as §2

johnsongrass = test: Test C postemergence; format: in vivo, Sorghum halepense; details: for Johnsongrass plant response rating: 16 g ai/ha, visual rating; for Johnsongrass plant response rating / Plant response rating (0 to 100), Johnsongrass: postemergence; for Johnsongrass plant response rating / Plant response rating, Johnsongrass: scale 0 to 100 (0 no effect, 100 complete control); for Plant response rating (0 to 100), Johnsongrass: 125 g ai/ha; for Plant response rating, Johnsongrass: Postemergence
In short: as §1

galium [6] = test: Test C postemergence; format: in vivo, Galium aparine; details: for Galium plant response rating: 16 g ai/ha, visual rating; for Galium plant response rating / Plant response rating (0 to 100), Galium: postemergence; for Galium plant response rating / Plant response rating, Galium: scale 0 to 100 (0 no effect, 100 complete control); for Plant response rating (0 to 100), Galium: 125 g ai/ha; for Plant response rating, Galium: Postemergence
In short: as §1

soybean [7] = test: Test C postemergence; format: in vivo, Glycine max; details: for Plant response rating (0 to 100), Soybean: 125 g ai/ha, postemergence; for Plant response rating, Soybean: Postemergence, scale 0 to 100 (0 no effect, 100 complete control)
In short: as §1

chickweed = test: Test C postemergence; format: in vivo, Stellaria media; details: for Chickweed plant response rating: 16 g ai/ha, visual rating; for Chickweed plant response rating / Plant response rating (0 to 100), Chickweed: postemergence; for Chickweed plant response rating / Plant response rating, Chickweed: scale 0 to 100 (0 no effect, 100 complete control); for Plant response rating (0 to 100), Chickweed: 125 g ai/ha; for Plant response rating, Chickweed: Postemergence
In short: as §1

[8] = 16 g ai/ha, scale 0 to 100 (0 no effect, 100 complete control)
[9] = 62 g ai/ha, scale 0 (no effect) to 100 (complete control)
[10] = 125 g ai/ha, scale 0 (no effect) to 100 (complete control)
[11] = 125 g ai/ha, 0 to 100 scale where 0 is no effect and 100 is complete control
[12] = 500 g ai/ha, 0 to 100 scale, 0 no effect, 100 complete control

SMILES: FCc1cccc(Oc2ncc(Cl)cn2)c1-n1cc(Br)cn1 [Compound 83]
- Waterhemp plant response rating (waterhemp; [8]): 75
- Waterhemp plant response rating (waterhemp; [9]): 100
- Waterhemp plant response rating (waterhemp; [10]): 100
- Plant response rating, Waterhemp (waterhemp): 100
- Plant response rating, Barnyardgrass (barnyardgrass [1]; [11]): 90
- Plant response rating, Barnyardgrass (barnyardgrass [1]; [12]): 100
- Barnyardgrass plant response rating (barnyardgrass [2]; [8]): 5
- Barnyardgrass plant response rating (barnyardgrass [2]; [9]): 45
- Barnyardgrass plant response rating (barnyardgrass [2]; [10]): 90
- Plant response rating, Barnyardgrass (barnyardgrass [2]): 5
- Morningglory plant response rating (morningglory; [8]): 0
- Morningglory plant response rating (morningglory; [9]): 0
- Morningglory plant response rating (morningglory; [10]): 10
- Plant response rating, Morningglory (morningglory): 0
- Oilseed Rape plant response rating (oilseed rape; [8]): 75
- Oilseed Rape plant response rating (oilseed rape; [9]): 98
- Oilseed Rape plant response rating (oilseed rape; [10]): 100
- Plant response rating, Oilseed Rape (oilseed rape): 95
- Plant response rating, Barnyardgrass (barnyardgrass [3]): 0
- Soybean plant response rating (soybean [4]; [8]): 5
- Soybean plant response rating (soybean [4]; [9]): 60
- Soybean plant response rating (soybean [4]; [10]): 75
- Plant response rating, Soybean (soybean [4]): 10
- Plant response rating, Pigweed (pigweed; 125 g ai/ha): 100
- Plant response rating, Pigweed (pigweed; 500 g ai/ha): 100
- Galium plant response rating (galium [5]; [8]): 0
- Galium plant response rating (galium [5]; [9]): 85
- Galium plant response rating (galium [5]; [10]): 100
- Plant response rating, Galium (galium [5]): 0
- Plant response rating (0 to 100), Velvetleaf (velvetleaf): 65
- Plant response rating, Velvetleaf (velvetleaf; 31 g ai/ha, 13 to 15 days): 55
- Plant response rating, Velvetleaf (velvetleaf; 62 g ai/ha): 50
- Plant response rating, Foxtail, Giant (giant foxtail): 100
- Foxtail, Giant plant response rating (giant foxtail): 100
- Johnsongrass plant response rating (johnsongrass; 13 to 15 days): 0
- Plant response rating (0 to 100), Johnsongrass (johnsongrass): 10
- Plant response rating, Johnsongrass (johnsongrass; 31 g ai/ha, 13 to 15 days): 0
- Plant response rating, Johnsongrass (johnsongrass; 62 g ai/ha): 10
- Galium plant response rating (galium [6]; 13 to 15 days): 50
- Plant response rating (0 to 100), Galium (galium [6]): 60
- Plant response rating, Galium (galium [6]; 31 g ai/ha, 13 to 15 days): 65
- Plant response rating, Galium (galium [6]; 62 g ai/ha): 70
- Plant response rating (0 to 100), Soybean (soybean [7]): 90
- Plant response rating, Soybean (soybean [7]; 31 g ai/ha, 13 to 15 days): 60
- Plant response rating, Soybean (soybean [7]; 62 g ai/ha): 70
- Chickweed plant response rating (chickweed; 13 to 15 days): 35
- Plant response rating (0 to 100), Chickweed (chickweed): 70
- Plant response rating, Chickweed (chickweed; 31 g ai/ha, 13 to 15 days): 40
- Plant response rating, Chickweed (chickweed; 62 g ai/ha): 60

SMILES: CCOc1cn(-c2c(Br)cccc2Oc2ncc(Cl)cn2)nn1 [Compound 84]
- Waterhemp plant response rating (waterhemp; [8]): 100
- Waterhemp plant response rating (waterhemp; [9]): 100
- Waterhemp plant response rating (waterhemp; [10]): 100
- Plant response rating, Waterhemp (waterhemp): 75
- Plant response rating, Barnyardgrass (barnyardgrass [1]; [11]): 70
- Plant response rating, Barnyardgrass (barnyardgrass [1]; [12]): 100
- Barnyardgrass plant response rating (barnyardgrass [2]; [8]): 0
- Barnyardgrass plant response rating (barnyardgrass [2]; [9]): 40
- Barnyardgrass plant response rating (barnyardgrass [2]; [10]): 85
- Plant response rating, Barnyardgrass (barnyardgrass [2]): 25
- Morningglory plant response rating (morningglory; [8]): 0
- Morningglory plant response rating (morningglory; [9]): 25
- Morningglory plant response rating (morningglory; [10]): 100
- Plant response rating, Morningglory (morningglory): 10
- Oilseed Rape plant response rating (oilseed rape; [8]): 50
- Oilseed Rape plant response rating (oilseed rape; [9]): 100
- Oilseed Rape plant response rating (oilseed rape; [10]): 100
- Plant response rating, Oilseed Rape (oilseed rape): 85
- Plant response rating, Barnyardgrass (barnyardgrass [3]): 0
- Soybean plant response rating (soybean [4]; [8]): 0
- Soybean plant response rating (soybean [4]; [9]): 60
- Soybean plant response rating (soybean [4]; [10]): 70
- Plant response rating, Soybean (soybean [4]): 20
- Plant response rating, Pigweed (pigweed; 125 g ai/ha): 100
- Plant response rating, Pigweed (pigweed; 500 g ai/ha): 100
- Galium plant response rating (galium [5]; [8]): 80
- Galium plant response rating (galium [5]; [9]): 100
- Galium plant response rating (galium [5]; [10]): 100
- Plant response rating, Galium (galium [5]): 90
- Plant response rating (0 to 100), Velvetleaf (velvetleaf): 90
- Plant response rating, Velvetleaf (velvetleaf; 31 g ai/ha, 13 to 15 days): 45
- Plant response rating, Velvetleaf (velvetleaf; 62 g ai/ha): 70
- Plant response rating, Foxtail, Giant (giant foxtail): 70
- Foxtail, Giant plant response rating (giant foxtail): 100
- Johnsongrass plant response rating (johnsongrass; 13 to 15 days): 0
- Plant response rating (0 to 100), Johnsongrass (johnsongrass): 0
- Plant response rating, Johnsongrass (johnsongrass; 31 g ai/ha, 13 to 15 days): 0
- Plant response rating, Johnsongrass (johnsongrass; 62 g ai/ha): 0
- Galium plant response rating (galium [6]; 13 to 15 days): 60
- Plant response rating (0 to 100), Galium (galium [6]): 95
- Plant response rating, Galium (galium [6]; 31 g ai/ha, 13 to 15 days): 75
- Plant response rating, Galium (galium [6]; 62 g ai/ha): 60
- Plant response rating (0 to 100), Soybean (soybean [7]): 90
- Plant response rating, Soybean (soybean [7]; 31 g ai/ha, 13 to 15 days): 55
- Plant response rating, Soybean (soybean [7]; 62 g ai/ha): 90
- Chickweed plant response rating (chickweed; 13 to 15 days): 10
- Plant response rating (0 to 100), Chickweed (chickweed): 50
- Plant response rating, Chickweed (chickweed; 31 g ai/ha, 13 to 15 days): 10
- Plant response rating, Chickweed (chickweed; 62 g ai/ha): 40
